Counter-ions that a name gives are not always drawn. A value given as a limit tells only on which side of the number the result lay.

We go through 34 compounds from patent US20230348475A1, “IMIDAZOPYRIDAZINE AND IMIDAZOPYRAZINE COMPOUNDS AS INHIBITORS OF CDK7” (THE TRANSLATIONAL GENOMICS RESEARCH INSTITUTE, priority 2020, published 2023).

For the assay, the target named is CDK7/CycH/MAT1 (Homo sapiens, UniProt P50613). Put plainly: Kinase Glo (ADP-Glo) biochemical assay, CDK7. The settings on record: CDK7/CycH/MAT1 40 ng, ATP 1 μM, 60 minutes at RT, luminescence. The method, then: Materials: • Assay Buffer: 50 mM HEPES, 3 mM MgCl2, 3 mM MnCl2, 1 mM DTT, 3 μM Na3VO4, pH 7.5 • Substrate RB • CTF Peptide (ProQinase #: 0040-0000-6) • Enzymes • CDK7/CycH/MAT1 (ProQinase #: 0366-0360-4) • ADP-Glo™ Assay (Promega #: V9101) • ATP: 10 mM • ADP-Glo™ Reagent • Kinase Detection Reagent • 384-well white assay plates
Sequence of CDK7/CycH/MAT1 (P50613 whole entry): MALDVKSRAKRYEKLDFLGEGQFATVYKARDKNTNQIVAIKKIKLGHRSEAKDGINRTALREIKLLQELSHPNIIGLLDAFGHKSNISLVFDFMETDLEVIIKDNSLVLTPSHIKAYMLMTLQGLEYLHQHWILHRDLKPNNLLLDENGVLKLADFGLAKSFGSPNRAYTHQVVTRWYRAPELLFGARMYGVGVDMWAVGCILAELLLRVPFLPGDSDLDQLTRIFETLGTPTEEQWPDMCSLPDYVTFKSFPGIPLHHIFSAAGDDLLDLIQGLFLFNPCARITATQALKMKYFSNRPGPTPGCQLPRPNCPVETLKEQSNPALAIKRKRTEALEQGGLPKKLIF
Sequence of CDK7/CycH/MAT1 (P51946 whole entry partner): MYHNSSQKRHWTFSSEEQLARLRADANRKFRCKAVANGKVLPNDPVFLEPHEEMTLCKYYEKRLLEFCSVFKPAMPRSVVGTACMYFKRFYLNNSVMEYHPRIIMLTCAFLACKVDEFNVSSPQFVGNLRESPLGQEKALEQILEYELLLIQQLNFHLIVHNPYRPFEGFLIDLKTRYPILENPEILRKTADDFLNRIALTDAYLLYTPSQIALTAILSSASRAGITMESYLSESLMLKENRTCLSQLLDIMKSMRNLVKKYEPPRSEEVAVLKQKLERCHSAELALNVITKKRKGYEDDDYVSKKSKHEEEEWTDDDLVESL
Sequence of CDK7/CycH/MAT1 (P51948 whole entry partner): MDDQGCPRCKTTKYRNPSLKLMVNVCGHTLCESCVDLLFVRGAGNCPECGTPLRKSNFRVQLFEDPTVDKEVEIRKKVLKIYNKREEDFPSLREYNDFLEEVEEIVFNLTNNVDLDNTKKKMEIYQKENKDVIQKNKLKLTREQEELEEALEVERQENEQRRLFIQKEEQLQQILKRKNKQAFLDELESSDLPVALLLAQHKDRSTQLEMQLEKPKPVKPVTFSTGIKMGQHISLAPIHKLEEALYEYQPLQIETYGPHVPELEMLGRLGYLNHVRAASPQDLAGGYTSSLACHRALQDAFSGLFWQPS
A ten point serial dilution of compound was prepared at 5X concentration in assay buffer with the final assay concentrations starting at 30 μM, 10 μM, 3 μM, 1 μM . . . 0 μM. Enzyme, substrate, and ATP were used at 40 ng, 200 ng (or 400 ng)* and 1 μM, respectively. The assay plate was set up by mixing the components in a total reaction volume of 10 μL per well. The plate was centrifuged gently for 10 seconds and incubated at room temperature (RT) for 60 minutes in the dark. The ADP-Glo Reagent and kinase detection reagent were added and incubated as recommended. The reaction was quantified by measuring luminescence on the Perkin Elmer Envision plate reader.
(Kinase-Glo reads ATP consumption through a luciferase reaction.)
In turn, `CC(C)c1cnc2c(NCc3ccccc3-n3cccn3)nc(SC3CCCNC3)cn12` (stereo not drawn) [Compound 68, N-(2-(1H-pyrazol-1-yl)benzyl)-3-isopropyl-6-(piperidin-3-ylthio)imidazo[1,2-α]pyrazin-8-amine hydrochloride] returned an IC50 below 100 nM.
On to `CC(C)c1cnc2c(Nc3cccc(F)c3)cc(OC3CCNCC3)nn12` [Compound 50, N-(3-fluorophenyl)-3-isopropyl-6-(piperidin-4-yloxy)imidazo[1,2-b]pyridazin-8-amine hydrochloride], for which the concentration for half-maximal inhibition (IC50) lay within 100 to 1000 nM.
For `CC(C)c1cnc2c(Nc3ccccc3OC(F)(F)F)cc(SC3CCCNC3)nn12` (stereo not shown) [Compound 60, 3-isopropyl-6-(piperidin-3-ylthio)-N-(2-(trifluoromethoxy)phenyl)imidazo[1,2-b]pyridazin-8-amine hydrochloride] the value was 100 to 1000 nM; for `c1ccc(CNc2cc(SC3CCNCC3)nn3c(C4CC4)cnc23)cc1` [Compound 18, N-benzyl-3-cyclopropyl-6-(piperidin-4-ylthio)imidazo[1,2-b]pyridazin-8-amine hydrochloride], below 100 nM; for `CC(C)c1cnc2c(Nc3cccc(OC(F)(F)F)c3)cc(SC3CCCNC3)nn12` (stereo not shown) [Compound 58, 3-isopropyl-6-(piperidin-3-ylthio)-N-(3-(trifluoromethoxy)phenyl)imidazo[1,2-b]pyridazin-8-amine hydrochloride], 100 to 1000 nM.
In the case of `CC(C)c1cnc2c(NCc3ccccc3OC(F)(F)F)cc(OC3CCNCC3F)nn12` (stereo not shown) [Compound 69, 6-((3-fluoropiperidin-4-yl)oxy)-3-isopropyl-N-(2-(trifluoromethoxy)benzyl)imidazo[1,2-b]pyridazin-8-amine hydrochloride], the IC50 was 100 to 1000 nM.
Take `c1ccc(CNc2cc(O[C@@H]3CCCNC3)nn3c(C4CC4)cnc23)cc1` [Compound 13, (R)—N-benzyl-3-cyclopropyl-6-(piperidin-3-yloxy)imidazo[1,2-b]pyridazin-8-amine]: the IC50 is 100 to 1000 nM.
Compound `c1ccc(CNc2nc(NC3CCNCC3)cn3c(C4CC4)cnc23)cc1` [Compound 31, N8-benzyl-3-cyclopropyl-N6-(piperidin-4-yl)imidazo[1,2-α]pyrazine-6,8-diamine hydrochloride] had a half-maximal inhibitory concentration (IC50) above 1000 nM.
Next, `COc1cc(F)ccc1CNc1cc(SC2CCNCC2)nn2c(C(C)C)cnc12` [Compound 72, N-(4-fluoro-2-methoxybenzyl)-3-isopropyl-6-(piperidin-4-ylthio)imidazo[1,2-b]pyridazin-8-amine hydrochloride]: below 100 nM.
Turning to `COC(=O)[C@@H](N)CSc1cc(NCc2ccccc2)c2ncc(C3CC3)n2n1` [Compound 30, methyl S-(8-(benzylamino)-3-cyclopropylimidazo[1,2-b]pyridazin-6-yl)-L-cysteinate hydrochloride], the half-maximal inhibitory concentration (IC50) was in the range of 100 to 1000 nM.
In the case of `CN1CCC(Oc2cc(Nc3cccc(F)c3)c3ncc(C4CC4)n3n2)CC1` [Compound 2, 3-cyclopropyl-N-(3-fluorophenyl)-6-((1-methylpiperidin-4-yl)oxy)imidazo[1,2-b]pyridazin-8-amine], the IC50 was in the range of 100 to 1000 nM.
As to `CC(C)Oc1ccccc1CNc1cc(SC2CCNCC2)nn2c(C(C)C)cnc12` [Compound 67, N-(2-isopropoxybenzyl)-3-isopropyl-6-(piperidin-4-ylthio)imidazo[1,2-b]pyridazin-8-amine hydrochloride], the concentration for half-maximal inhibition (IC50) was below 100 nM.
Compound `COc1ccccc1CNc1cc(OC2CCN(C)CC2)nn2c(C3CC3)cnc12` [Compound I-2] registered a concentration for half-maximal inhibition (IC50) of 100 to 1000 nM.
Compound `c1ccc(CNc2cc(OC3CCNCC3)nn3c(C4CC4)cnc23)cc1` [Compound 14, N-benzyl-3-cyclopropyl-6-(piperidin-4-yloxy)imidazo[1,2-b]pyridazin-8-amine] displayed an IC50 of 100 to 1000 nM.
Next, `COc1cc(F)ccc1CNc1cc(SC2CCCNC2)nn2c(C(C)C)cnc12` (stereo not shown) [Compound 79, N-(4-fluoro-2-methoxybenzyl)-3-isopropyl-6-(piperidin-3-ylthio)imidazo[1,2-b]pyridazin-8-amine formate]: 100 to 1000 nM.
In turn, `CC(C)c1cnc2c(NCc3ccccc3OC(F)(F)F)cc(SC3CCNCC3F)nn12` (stereo not shown) [Compound 74, 6-((3-fluoropiperidin-4-yl)thio)-3-isopropyl-N-(2-(trifluoromethoxy)benzyl)imidazo[1,2-b]pyridazin-8-amine hydrochloride] came in with a half-maximal inhibitory concentration (IC50) of 100 to 1000 nM.
On to `CN1CC[C@H](Oc2cc(NCc3ccccc3)c3ncc(C4CC4)n3n2)C1` [Compound 8, (S)—N-benzyl-3-cyclopropyl-6-((1-methylpyrrolidin-3-yl)oxy)imidazo[1,2-b]pyridazin-8-amine], for which the IC50 fell in the range of 100 to 1000 nM.
Regarding `Fc1cccc(Nc2cc(O[C@H]3CCCNC3)nn3c(C(F)(F)F)cnc23)c1` [Compound 82, (S)-N-(3-fluorophenyl)-6-(piperidin-3-yloxy)-3-(trifluoromethyl)imidazo[1,2-b]pyridazin-8-amine hydrochloride], the IC50 is below 100 nM.
Compound `CC(C)c1cnc2c(NCc3cccc(OC(F)(F)F)c3)cc(SC3CCNCC3)nn12` [Compound 54, 3-isopropyl-6-(piperidin-4-ylthio)-N-(3-(trifluoromethoxy)benzyl)imidazo[1,2-b]pyridazin-8-amine hydrochloride] gave a 50% inhibitory concentration (IC50) below 100 nM.
The compound `CN1CCC[C@H](Nc2cc(NCc3ccccc3)c3ncc(C4CC4)n3n2)C1` [Compound 16, (S)-N8-benzyl-3-cyclopropyl-N6-(1-methylpiperidin-3-yl)imidazo[1,2-b]pyridazine-6,8-diamine] displayed a half-inhibitory concentration (IC50) of 100 to 1000 nM.
Compound `CC(C)c1cnc2c(NCc3ccccc3)cc(S[C@H]3CCCNC3)nn12` (single isomer, unassigned) [Compound 42, hydrochloride] had a concentration for half-maximal inhibition (IC50) below 100 nM.
Next, `CC(C)c1cnc2c(NCc3cccc(C(F)(F)F)c3)cc(SC3CCNCC3)nn12` [Compound 55, 3-isopropyl-6-(piperidin-4-ylthio)-N-(3-(trifluoromethyl)benzyl)imidazo[1,2-b]pyridazin-8-amine hydrochloride]: below 100 nM.
`CC(C)c1cnc2c(Nc3ccccc3C(F)(F)F)cc(SC3CCCNC3)nn12` (stereo not shown) [Compound 61, 3-isopropyl-6-(piperidin-3-ylthio)-N-(2-(trifluoromethyl)phenyl) imidazo[1,2-b]pyridazin-8-amine hydrochloride] registered an IC50 of 100 to 1000 nM.
For `CC(C)c1cnc2c(NCc3ccccc3)cc(NC[C@H]3CCNC[C@@H]3O)nn12` [Compound I-3] the value was below 100 nM.
`CC(C)c1cnc2c(NCc3ccc(F)cc3C(F)(F)F)cc(SC3CCNCC3)nn12` [Compound 80, N-(4-fluoro-2-(trifluoromethyl)benzyl)-3-isopropyl-6-(piperidin-4-ylthio)imidazo[1,2-b]pyridazin-8-amine hydrochloride]: the IC50 lay in the range of 100 to 1000 nM.
Take `CC(C)c1cnc2c(NCc3ccc(F)cc3C(F)(F)F)cc(SC3CCCNC3)nn12` (stereo not shown) [Compound 81, N-(4-fluoro-2-(trifluoromethyl)benzyl)-3-isopropyl-6-(piperidin-3-ylthio)imidazo[1,2-b]pyridazin-8-amine hydrochloride]: the half-inhibitory concentration (IC50) was in the range of 100 to 1000 nM.
`c1ccc(CNc2nc(SC3CCNCC3)cn3c(C4CC4)cnc23)cc1` [Compound 21, N-benzyl-3-cyclopropyl-6-(piperidin-4-ylthio)imidazo[1,2-α]pyrazin-8-amine formate salt]: the IC50 fell in the range of 100 to 1000 nM.
For `c1ccc(CNc2cc(NCC3CC4(CCNCC4)O3)nn3c(C4CC4)cnc23)cc1` (stereo not shown) [Compound 17, N6-((1-oxa-7-azaspiro[3.5]nonan-2-yl)methyl)-N8-benzyl-3-cyclopropylimidazo[1,2-b]pyridazine-6,8-diamine], the concentration for half-maximal inhibition (IC50) fell in the range of 100 to 1000 nM.
The compound `CC(C)c1cnc2c(NCc3ccccc3OC(F)(F)F)cc(SC3CCNCC3(F)F)nn12` (stereo not shown) [Compound 76, 6-((3,3-difluoropiperidin-4-yl)thio)-3-)isopropyl-N-(2-(trifluoromethoxy)benzyl)imidazo[1,2-b]pyridazin-8-amine hydrochloride] returned an IC50 of 100 to 1000 nM.
`CN1CC[C@H](Oc2cc(Nc3cccc(F)c3)c3ncc(C4CC4)n3n2)C1` [Compound 5, (S)-3-cyclopropyl-N-(3-fluorophenyl)-6-((1-methylpyrrolidin-3-yl)oxy)imidazo[1,2-b]pyridazin-8-amine] displayed a 50% inhibitory concentration (IC50) of 100 to 1000 nM.
Turning to `c1ccc(CNc2cc(NCCC3CNCCO3)nn3c(C4CC4)cnc23)cc1` (stereo not shown) [Compound 19, N8-benzyl-3-cyclopropyl-N6-(2-(morpholin-2-yl)ethyl)imidazo[1,2-b]pyridazine-6,8-diamine formate], the IC50 fell in the range of 100 to 1000 nM.
`CN1CCC[C@@H](Oc2cc(Nc3cccc(F)c3)c3ncc(C4CC4)n3n2)C1` [Compound 4, (R)-3-cyclopropyl-N-(3-fluorophenyl)-6-((1-methylpiperidin-3-yl)oxy)imidazo[1,2-b]pyridazin-8-amine] came in with an IC50 above 1000 nM.
Regarding `CC(C)c1cnc2c(NCc3ccccc3OC(F)(F)F)cc(OC[C@H]3CNCCO3)nn12` [Compound 47, (R)-3-isopropyl-6-(morpholin-2-ylmethoxy)-N-(2-(trifluoromethoxy)benzyl)imidazo[1,2-b]pyridazin-8-amine hydrochloride], the IC50 lay within 100 to 1000 nM.
Regarding `CN1CC[C@@H](Oc2cc(Nc3cccc(F)c3)c3ncc(C4CC4)n3n2)C1` [Compound 3, (R)-3-cyclopropyl-N-(3-fluorophenyl)-6-((1-methylpyrrolidin-3-yl)oxy)imidazo[1,2-b]pyridazin-8-amine], the IC50 was in the range of 100 to 1000 nM.

Usually IC50 stands for the concentration at which inhibition is half-maximal. A high value points to lower potency.
